# Measurements from PubChem BioAssay (NCI).
#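 96-well plates; 48 h exposure; 5 concentrations. Endpoints by linear interpolation between flanking doses. Not reached: highest tested concentration assigned. Abbreviation: GI50, concentration required for 50% inhibition of growth. Definition used: TGI = concentration required for complete inhibition of growth.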
# Tests used:
# Experiment in all cases: DTP human tumour cell line panel, 48 h
# [1] = tested on: OVCAR-5 ovarian
# [2] = tested on: OVCAR-8 ovarian
# [3] = tested on: SW-620 colon
# [4] = tested on: NCI-H23 lung
# [5] = tested on: TK-10 renal
# [6] = tested on: IGROV1 ovarian
# [7] = tested on: DU-145 prostate
# [8] = tested on: U251 CNS
# [9] = tested on: SK-MEL-5 melanoma
# [10] = tested on: NCI/ADR-RES ovarian
# [11] = tested on: PC-3 prostate
# [12] = tested on: OVCAR-4 ovarian
# [13] = tested on: SF-295 CNS
# [14] = tested on: HCT-15 colon
# [15] = tested on: SK-MEL-28 melanoma
# [16] = tested on: EKVX NSCLC
# [17] = tested on: HOP-92 NSCLC
# [18] = tested on: SF-539 CNS
# [19] = tested on: MDA-MB-468 breast
# [20] = tested on: COLO 205 colon
# [21] = tested on: OVCAR-3 ovarian
# [22] = tested on: T-47D breast
# [23] = tested on: HCC-2998 colon
# [24] = tested on: BT-549 breast
# [25] = tested on: RPMI-8226 leukemia
# [26] = tested on: HCT-116 colon
# [27] = tested on: SN12C renal
# [28] = tested on: K-562 leukemia
# [29] = tested on: HT29 colon
# [30] = tested on: NCI-H226 lung
# [31] = tested on: NCI-H522 lung
# [32] = tested on: RXF 393 renal
# [33] = tested on: HL-60(TB) leukemia
# [34] = tested on: KM12 colon
# [35] = tested on: HOP-62 NSCLC
# [36] = tested on: MCF7 breast
# [37] = tested on: ACHN renal
# [38] = tested on: CCRF-CEM leukemia
# [39] = tested on: UO-31 renal
# [40] = tested on: M14 melanoma
# [41] = tested on: UACC-62 melanoma
# [42] = tested on: SF-268 CNS
# [43] = tested on: SNB-75 CNS
# [44] = tested on: A549 NSCLC
# [45] = tested on: MALME-3M melanoma
# [46] = tested on: MOLT-4 leukemia
# [47] = tested on: NCI-H460 lung
# [48] = tested on: MDA-MB-231 breast
# [49] = tested on: SK-OV-3 ovarian
# [50] = tested on: A498 renal
# [51] = tested on: SR leukemia
# [52] = tested on: SNB-19 CNS
# [53] = tested on: MDA-MB-435
# [54] = tested on: HS 578T breast
# [55] = tested on: CAKI-1 renal
# [56] = tested on: LOX IMVI melanoma
# [57] = tested on: 786-0 renal
# [58] = tested on: SK-MEL-2 melanoma
# [59] = tested on: UACC-257 melanoma
compound,measurement,setting,value
COc1ccc(C(C)=C(c2ccc(OCCCN(C)C)cc2)c2ccc(OCCCN(C)C)cc2)cc1,GI50,[1],2820 nM
same,TGI,[1],5550 nM
same,GI50,[2],3620 nM
same,TGI,[2],7600 nM
same,GI50,[3],982 nM
same,TGI,[3],3620 nM
same,GI50,[4],2900 nM
same,TGI,[4],5880 nM
same,GI50,[5],3380 nM
same,TGI,[5],6360 nM
same,GI50,[6],2960 nM
same,TGI,[6],5750 nM
same,GI50,[7],2100 nM
same,TGI,[7],4600 nM
same,GI50,[8],2710 nM
same,TGI,[8],6000 nM
same,GI50,[9],2570 nM
same,TGI,[9],5200 nM
same,GI50,[10],3090 nM
same,TGI,[10],6150 nM
same,GI50,[11],2750 nM
same,TGI,[11],6070 nM
same,GI50,[12],2220 nM
same,TGI,[12],5220 nM
same,GI50,[13],2490 nM
same,TGI,[13],5290 nM
same,GI50,[14],1090 nM
same,TGI,[14],3790 nM
same,GI50,[15],2490 nM
same,TGI,[15],5070 nM
same,GI50,[16],2980 nM
same,TGI,[16],5890 nM
same,GI50,[17],1100 nM
same,TGI,[17],4270 nM
same,GI50,[18],788 nM
same,TGI,[18],2850 nM
same,GI50,[19],705 nM
same,TGI,[19],3010 nM
same,GI50,[20],799 nM
same,TGI,[20],3080 nM
same,GI50,[21],678 nM
same,TGI,[21],2300 nM
same,GI50,[22],1570 nM
same,TGI,[22],4980 nM
same,GI50,[23],2160 nM
same,TGI,[23],4790 nM
same,GI50,[24],3200 nM
same,TGI,[24],6220 nM
same,GI50,[25],2180 nM
same,TGI,[25],8530 nM
same,GI50,[26],795 nM
same,TGI,[26],3210 nM
same,GI50,[27],2950 nM
same,TGI,[27],5720 nM
same,GI50,[28],621 nM
same,TGI,[28],5040 nM
same,GI50,[29],426 nM
same,TGI,[29],867 nM
same,GI50,[30],3000 nM
same,TGI,[30],6280 nM
same,GI50,[31],2420 nM
same,TGI,[31],5330 nM
same,GI50,[32],1090 nM
same,TGI,[32],3920 nM
same,GI50,[33],735 nM
same,TGI,[33],3030 nM
same,GI50,[34],2600 nM
same,TGI,[34],5500 nM
same,GI50,[35],3080 nM
same,TGI,[35],6170 nM
same,GI50,[36],418 nM
same,TGI,[36],3060 nM
same,GI50,[37],2620 nM
same,TGI,[37],5230 nM
same,GI50,[38],593 nM
same,TGI,[38],1960 nM
same,GI50,[39],2740 nM
same,TGI,[39],5400 nM
same,GI50,[40],427 nM
same,TGI,[40],930 nM
same,GI50,[41],2970 nM
same,TGI,[41],5730 nM
same,GI50,[42],2800 nM
same,TGI,[42],5940 nM
same,GI50,[43],2130 nM
same,TGI,[43],4660 nM
same,GI50,[44],2990 nM
same,TGI,[44],7480 nM
same,GI50,[45],558 nM
same,TGI,[45],1890 nM
same,GI50,[46],1080 nM
same,TGI,[46],4050 nM
same,GI50,[47],899 nM
same,TGI,[47],3430 nM
same,GI50,[48],1550 nM
same,TGI,[48],4230 nM
same,GI50,[49],3260 nM
same,TGI,[49],6190 nM
same,GI50,[50],2730 nM
same,TGI,[50],5510 nM
same,GI50,[51],523 nM
same,TGI,[51],1730 nM
same,GI50,[52],3200 nM
same,TGI,[52],6060 nM
same,GI50,[53],537 nM
same,TGI,[53],1830 nM
same,GI50,[54],2440 nM
same,TGI,[54],6220 nM
same,GI50,[55],2710 nM
same,TGI,[55],5350 nM
same,GI50,[56],625 nM
same,TGI,[56],2080 nM
same,GI50,[57],491 nM
same,TGI,[57],1460 nM
same,GI50,[58],3330 nM
same,TGI,[58],6330 nM
same,GI50,[59],3270 nM
same,TGI,[59],6420 nM
